We go through 14 compounds from publication PMC8838532 (Molecules, 2022).

Like-named read-outs stand apart in the source and are kept apart here.

Broadly, the melting point is the temperature, or range, at which the solid turns liquid. The term IC50 denotes the concentration that gives 50% inhibition. For orientation: cell viability means a per cent measure of how many cells are alive, often set against a control. What is called viability is the share of living cells, or the viability signal relative to a control.

Series [1] concerns K562 cells. Details: method as in PMID 30055465. The settings on record: cited from earlier work.
The test system of series [2] is K562 cells. Conditions: 150 μM, Figure 1; cited from earlier work.
The test system of series [3] is A549 cells. Conditions: 150 μM, cited from earlier work; for % viability reduction A549 cells: Figure 1.
Series [4] relates to K562 cells. Put plainly: Resazurin cytotoxicity assay in K562 cells. Conditions: for viability at 10 µM: read-out: percentage of viability. Background: Resazurin is reduced to fluorescent resorufin, in cell work by metabolically active cells.
Another series has as its system WSS-1 cells. The series can be described thus: Resazurin cytotoxicity assay in WSS-1 cells. Conditions: WSS-1 healthy human cells, 48 h. The class given is cell-based. How it is done: (§1) The A549 cell line (CCL-185™; ATCC, Manassas, VA, USA), from human lung carcinoma epithelium, and the K562 cell line (Rio de Janeiro Cell Bank, BCRJ: 0126, Rio de Janeiro, RJ, Brazil), a human chronic myeloid cell line expressing the BCR-ABL1 protein, were grown in RPMI-1640 culture medium (Merck, Darmstadt, Hesse, Germany) supplemented with 10% heat-inactivated fetal bovine serum (FBS; Vitrocell, Campinas, SP, Brazil). WSS-1 [WS-1] (ATCC CRL-2029™) human […] cells were grown in high-glucose DMEM (Vitrocell) supplemented with 10% FBS (Vitrocell). All cell lines were maintained at 37 °C under 5% CO2, in a water jacket CO2 incubator (Forma Series II incubator, Thermo Fisher Scientific, Waltham, MA, USA).
(§2) Briefly, cells were seeded in 96-well microplates (2 × 10^4 cells/well for K562 cells and 5 × 10^4 cells/well for A549 and WSS-1 cells) and incubated with 10 µM of the test compounds for 48 h at 37 °C. A resazurin (Merck, Darmstadt, Hesse, Germany) solution (final concentration: 0.01 mg/mL) was added to each well before the end of the experiment, at 1 h before concluding for K562 cells, and 2 h before concluding for A549 and WSS-1 cells. Fluorescence readings (λex = 560 nm, […]) were carried out immediately after the addition of resazurin (t0) and at the end of the experiment (tn) with a FlexStation 3 Benchtop multimode microplate reader (Molecular Devices, San Jose, CA, USA). Resorufin fluorescence was calculated by subtracting the fluorescence measured at t0 from that at tn. Cell viability was expressed as percentages, considering the mean resorufin fluorescence of the control wells (cells incubated with only DMSO) to be 100%. Tests were performed in triplicate. The same assay was carried out to generate 8–10 points concentration-response curves (300 µM top compound concentration).
(§3) IC50 values were calculated by a four-parameter logistic curve function, using GraphPad Prism version 6.01 for Windows (GraphPad Software, San Diego, CA, USA, www.graphpad.com) (accessed on 29 December 2021).

The subject of series [5] is A549 cells. The series can be described thus: Resazurin cytotoxicity assay in A549 cells. The class given is cell-based, human. The settings on record: for fold more potent than imatinib / IC50: A549 cells; for fold more potent than imatinib: IC50 versus imatinib; for IC50: Homo sapiens, 48 h, resazurin, concentration-response curve; for SI WSS-1/A549: SI = IC50 (WSS-1)/IC50 (A549). The procedure:
as §1, §2, §3

Series [6] deals with K562 cells. Conditions: Figure 1; cited from earlier work.

As for `Cc1ccc(-n2cc(CN3C(=O)C(=O)c4cc(F)ccc43)nn2)cc1Nc1nccc(-c2cccnc2)n1` [2e, 5-fluoro-1-((1-(4-methyl-3-((4-(pyridin-3-yl)pyrimidin-2-yl)amino)phenyl)-1H-1,2,3-triazol-4 yl)methyl)indoline-2,3-dione], the melting point fell in the range of 251 to 253 °C.
On to `CCc1c2c(nc3ccc(OC(=O)N4CCC(N5CCCCC5)CC4)cc13)-c1cc3c(c(=O)n1C2)COC(=O)[C@]3(O)CC` [irinotecan], for which the IC50 with K562 cells [1] was 0.07 µM.
Turning to `CC(=O)NCC(=O)Nc1ccc(C)c(Nc2nccc(-c3cccnc3)n2)c1` [compound 8], the “% viability reduction K562 cells” value in the series on K562 cells [2] is 66.3%. Also, in the series on A549 cells [3], the “% viability reduction A549 cells” value was 61.5% and the cell viability is 38.5%.
`Cc1ccc2c(c1)C(F)(F)C(=O)N2Cc1cn(-c2ccc(C)c(Nc3nccc(-c4cccnc4)n3)c2)nn1` [compound 3b, 3,3-difluoro-5-methyl-1-((1-(4-methyl-3-((4-(pyridin-3-yl)pyrimidin-2-yl)amino)phenyl)-1H-1,2,3-triazol-4-yl)methyl)indolin-2-one] returned a melting point of 102 to 104 °C. In the series on K562 cells [4] (Homo sapiens, K562, 48 h, read-out: IC50 K562), the IC50 came to 35.8 µM. For the same compound, the viability at 10 µM with K562 cells [4] (Homo sapiens, K562, 48 h) stood at 57.5%. Also, the “SI WSS-1/K562” value with K562 cells [4] (SI = IC50 (WSS-1)/IC50 (K562)) is given as 1.9. For the same compound, half-maximal inhibition in the series with WSS-1 cells (IC50) required 69.3 µM.
The compound `Cc1ccc(-n2cc(CN3C(=O)C(F)(F)c4cc(Br)ccc43)nn2)cc1Nc1nccc(-c2cccnc2)n1` [3d, 5-bromo-3.3-difluoro-1-((1-(4-methyl-3-((4-(pyridin-3-yl)pyrimidin-2-yl)amino)phenyl)-1H-1,2,3-triazol-4-yl)methyl)indoline-2-one] yielded a melting point of 218 to 219 °C. Moreover, the IC50 in the series with WSS-1 cells was found to be 18.6 µM. Further, in the series with A549 cells [5], the “fold more potent than imatinib” value is “approximately 10 fold”, it took 7.3 µM to reach half-maximal inhibition (IC50) and the “SI WSS-1/A549” value was 2.5.
Take `Cc1ccc(NC(=O)c2ccc(CN3CCN(C)CC3)cc2)cc1Nc1nccc(-c2cccnc2)n1` [Imatinib, imatinib]: the viability at 10 µM in the series with K562 cells [4] (Homo sapiens, K562, 48 h) was 30.7%. Also, the “% viability reduction K562 cells” value in the series with K562 cells [2] is 61.7%. Moreover, in the series with A549 cells [3], the “% viability reduction A549 cells” value was 61.2%.
As for `Cc1ccc(-n2cc(CN3C(=O)C(F)(F)c4ccccc43)nn2)cc1Nc1nccc(-c2cccnc2)n1` [compound 3a, 3.3-difluoro-1-((1-(4-methyl-3-((4-(pyridin-3-yl)pyrimidin-2-yl)amino)phenyl)-1H-1,2,3-triazole-4-yl)methyl)indoline-2-one], the melting point stood at 222 °C. In the series on WSS-1 cells, it took 11.6 µM to reach half-maximal inhibition (IC50). Besides, in the series on A549 cells [5], the “fold more potent than imatinib” value is “approximately 10 fold”, the IC50 came out at 7.2 µM and the “SI WSS-1/A549” value was determined as 1.6.
Regarding `COc1ccc(CN2C(=O)C(=O)c3cc(-c4ccc(OC)cc4)ccc32)cc1` [compound 4], the IC50 in the series on K562 cells [1] was 0.03 µM.
As to `Cc1ccc(-n2cc(CN3C(=O)C(=O)c4cc(Br)ccc43)nn2)cc1Nc1nccc(-c2cccnc2)n1` [2d, 5-bromo-1-((1-(4-methyl-3-((4-(pyridin-3-yl)pyrimidin-2-yl)amino)phenyl)-1H-1,2,3-triazol-4 yl)methyl)indoline-2,3-dione], the melting point lay within 267 to 270 °C.
The compound `Cc1ccc(-n2cc(CN3C(=O)C(F)(F)c4cc(Cl)ccc43)nn2)cc1Nc1nccc(-c2cccnc2)n1` [3c, 5-chloro-3,3-difluoro-1-((1-(4-methyl-3-((4-(pyridin-3-yl)pyrimidin-2-yl)amino)phenyl)-1H-1,2,3-triazol-4-yl)methyl)indoline-2-one] displayed a melting point of 223 to 224 °C. In the series on WSS-1 cells, this compound registered an IC50 of 13.5 µM. In the series with A549 cells [5], the “fold more potent than imatinib” value is “approximately 10 fold”, the IC50 stood at 6.4 µM and the “SI WSS-1/A549” value is 2.1.
Regarding `Cc1ccc2c(c1)C(=O)C(=O)N2Cc1cn(-c2ccc(C)c(Nc3nccc(-c4cccnc4)n3)c2)nn1` [2b, 5-methyl-1-((1-(4-methyl-3-((4-(pyridin-3-yl)pyrimidin-2-yl)amino)phenyl)-1H-1,2,3-triazol-4 yl)methyl)indoline-2,3-dione], the melting point is 235 to 237 °C.
Same read-out and setting: under `Cc1ccc(-n2cc(CN3C(=O)C(=O)c4cc(Cl)ccc43)nn2)cc1Nc1nccc(-c2cccnc2)n1` [2c, 5-chloro-1-((1-(4-methyl-3-((4-(pyridin-3-yl)pyrimidin-2-yl)amino)phenyl)-1H-1,2,3-triazol-4 yl)methyl)indoline-2,3-dione] stands 257 to 260 °C; under `Cc1ccc(-n2cc(CN3C(=O)C(=O)c4ccccc43)nn2)cc1Nc1nccc(-c2cccnc2)n1` [compound 2a, 1-((1-(4-methyl-3-((4-(pyridin-3-yl)pyrimidin-2-yl)amino)phenyl)-1H-1,2,3-triazol-4-yl)methyl)indoline-2,3-dione], 237 to 239 °C.
On to `Cc1ccc(-c2cn(-c3ccc(CN4CCN(C)CC4)c(C(F)(F)F)c3)nn2)cc1Nc1nccc(-c2cccnc2)n1` [compound 7], for which the IC50 in the series with K562 cells [6] was 0.03 µM.
